{
  "source": "paper PMC4710522",
  "about": "“A Novel Triazolopyridine-Based Spleen Tyrosine Kinase Inhibitor That Arrests Joint Inflammation” (PLoS ONE, 2016)",
  "key": {"AMPK_r": {"test_system": "AMPK_r", "experiment": "SelectScreen kinase assay", "format": "biochemical, rat", "conditions": "3 µM, KM ATP", "procedure": "Syk kinase mode of inhibition studies, including parameters described in Fig 1, were conducted on the LC3000 platform by Caliper Life Sciences (Hopkinton, MA) according to standard protocols developed by the supplier. […] Non-kinase enzyme assays and GPCR, ion channel, and transporter binding assays were run by CEREP (France). Non-GLP manual patch clamp hERG assays were run by ChanTest (Cleveland, Ohio). Vivid® Assay kits (Life Technologies) were used to measure the cytochrome P450 inhibition of the compound against CYP3A, CYP2C9, CYP2C19, CYP2D6, and CYP1A2, as described.\nKinase activity was measured using either the Z’-Lyte® or the Adapta® protocols as part of the SelectScreen™ profiling service offered at Life Technologies (Grand Island, NY). For the single point measurements (Part A), CC-509 was kept constant at 3 µM while ATP concentrations [ATP] used were at the KM for ATP (KM ATP) for that specific enyzme, at 10 or 100 µM ATP (10 ATP or 100 ATP, respectively), as indicated. Values expressed as percent control (% control) relative to DMSO-only wells (uninhibited, 100%).\nKinase activity was measured using either the Z’-Lyte® or the Adapta® protocols as part of the SelectScreen™ profiling service offered at Life Technologies (Grand Island, NY). […] Values expressed as percent control (% control) relative to DMSO-only wells (uninhibited, 100%)."}, "rat pharmacokinetics": {"experiment": "rat pharmacokinetics", "format": "in vivo", "conditions": "Sprague-Dawley, plasma", "procedure": "Male and Female Sprague-dawley rats with jugular vein cannulation were obtained from Charles River Laboratories. All rats were maintained under standard conditions with access to food and water ad libitum. For intravenous (i.v.) dosing, CC-509 was dissolved in DMA/PEG400 (15/85, V/V). A dose of 2 mg/kg was administered to three male rats via jugular vein cannula with a dosing volume of 2 mL/kg followed by flushing 0.5 mL saline through the cannula. Blood were collected at 0.083, 0.25, 0.5, 1, 2, 4, 6, 8 and 24hr post dose. Plasma samples were separated by centrifugation of blood and stored at -20°C until analysis. For oral administration, four female rats (220–250g) were fasted for 12hr but allowed to access water prior to the dosing. CC-509 was formulated in 20% Captisol as a solution and was administered to the rats at 10 mg/kg by oral gavage with a dosing volume of 5mL/kg. Food was returned to the rats 2hr post dosing. Blood samples were collected at 0.5, 1, 2, 4, 6, 8 and 24hr post dose. Plasma samples were separated by centrifugation of blood and stored at -20°C until analysis. Plasma concentrations of CC-509 were quantified by a LC/MS/MS method. A total of 50 microliters (μL) of each plasma sample was extracted with three volumes of mixed solvent (methanol:acetonitrile (1:1). The extracted samples were filtered through a filtration plate (0.45μm, Varian, Inc.) and the filtrates were injected onto a LC-MS system. The LC-MS system consisted of a ThermoScientific (Waltham, MA) TSQ Quantum Ultra™ Mass Spectrometer coupled with a Thermo Accela™ ultra-high pressure liquid chromatogram (UPLC) system. Separation was achieved on a Thermo Hypersil Gold™ column (50 x 2.1 mm, 1.9 μm) by running a linear gradient of mobile phase at a flow rate of 0.5 mL/min. Mobile phase A and B consisted of 0.1% formic acid in water and 0.1% formic acid in methanol, respectively. Quantitation was performed using selected reaction monitoring (SRM) at the transition m/z 448 to m/z 364 for CC-509. PK parameters in plasma were estimated by WinNonLin software (Pharsight, Princeton, NJ) using non-compartmental analysis. For i.v. dosing, plasma clearance (CLp), volume distribution at steady-state (Vss) and mean residence time (MRT) were estimated. For oral administration, the maximum plasma concentration (Cmax), the time when the maximum plasma concentration is reached (Tmax) and area under the curve from 0 to infinity (AUC0-inf) were calculated."}, "MSK2_h": {"target": "T1, MSK2_h (Homo sapiens, UniProt O75676)", "T1 construct": "purchased Life Technologies (Invitrogen) SelectScreen, Z'-LYTE / Adapta", "experiment": "SelectScreen kinase assay", "format": "biochemical", "conditions": "KM ATP, read-out: % control"}, "human KDR in Hek cells": {"target": "T2, human KDR in Hek cells (Homo sapiens, UniProt P35968)", "T2 construct": "host or cells: HEK293", "T2 sequence (P35968 20-1356)": "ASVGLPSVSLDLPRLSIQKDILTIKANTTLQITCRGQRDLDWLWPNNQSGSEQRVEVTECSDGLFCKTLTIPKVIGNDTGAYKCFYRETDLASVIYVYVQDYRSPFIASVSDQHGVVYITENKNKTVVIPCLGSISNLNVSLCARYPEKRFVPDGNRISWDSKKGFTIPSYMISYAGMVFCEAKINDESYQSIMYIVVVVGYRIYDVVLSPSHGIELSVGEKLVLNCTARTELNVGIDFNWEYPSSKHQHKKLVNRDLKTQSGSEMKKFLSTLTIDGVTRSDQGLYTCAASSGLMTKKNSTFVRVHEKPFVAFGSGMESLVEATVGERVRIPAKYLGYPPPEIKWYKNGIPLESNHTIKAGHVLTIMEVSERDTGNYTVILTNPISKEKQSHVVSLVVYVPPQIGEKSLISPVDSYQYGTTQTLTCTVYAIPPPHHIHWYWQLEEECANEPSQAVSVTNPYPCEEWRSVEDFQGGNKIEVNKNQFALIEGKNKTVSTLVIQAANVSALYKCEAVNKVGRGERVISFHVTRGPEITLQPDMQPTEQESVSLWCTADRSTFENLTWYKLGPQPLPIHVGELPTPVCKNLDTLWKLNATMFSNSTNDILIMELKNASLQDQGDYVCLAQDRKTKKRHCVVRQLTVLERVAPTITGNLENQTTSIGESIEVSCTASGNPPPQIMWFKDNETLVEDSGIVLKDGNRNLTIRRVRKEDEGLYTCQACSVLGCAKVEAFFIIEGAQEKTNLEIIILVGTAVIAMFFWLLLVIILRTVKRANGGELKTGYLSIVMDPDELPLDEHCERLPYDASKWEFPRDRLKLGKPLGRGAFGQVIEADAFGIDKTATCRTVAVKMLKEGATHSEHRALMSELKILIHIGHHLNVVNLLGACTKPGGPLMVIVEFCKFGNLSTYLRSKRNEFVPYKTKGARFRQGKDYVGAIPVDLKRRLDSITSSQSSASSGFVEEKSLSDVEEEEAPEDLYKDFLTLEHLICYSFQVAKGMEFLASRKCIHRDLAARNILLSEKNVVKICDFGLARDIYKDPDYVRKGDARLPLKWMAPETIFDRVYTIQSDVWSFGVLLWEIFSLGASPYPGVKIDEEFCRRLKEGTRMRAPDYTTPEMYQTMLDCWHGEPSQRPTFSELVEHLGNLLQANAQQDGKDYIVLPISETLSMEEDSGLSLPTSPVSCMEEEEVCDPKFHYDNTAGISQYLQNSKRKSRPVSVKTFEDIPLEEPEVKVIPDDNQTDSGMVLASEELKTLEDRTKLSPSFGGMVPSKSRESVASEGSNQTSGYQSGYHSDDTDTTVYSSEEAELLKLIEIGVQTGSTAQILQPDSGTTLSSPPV", "experiment": "KDR cellular selectivity assay (VEGF-induced KDR autophosphorylation)", "format": "cell-based"}, "ZIPK_h": {"target": "T3, ZIPK_h (Homo sapiens, UniProt O43293)", "T3 construct": "purchased Life Technologies (Invitrogen) SelectScreen, Z'-LYTE / Adapta", "experiment": "SelectScreen kinase assay", "format": "biochemical", "conditions": "KM ATP, read-out: % control"}, "LRRK2 G2019S_h": {"target": "T4, LRRK2 G2019S_h (Homo sapiens, UniProt Q5S007, G2019S)", "T4 construct": "purchased Life Technologies (Invitrogen) SelectScreen, Z'-LYTE / Adapta", "T4 sequence (Q5S007 whole entry G2019S)": "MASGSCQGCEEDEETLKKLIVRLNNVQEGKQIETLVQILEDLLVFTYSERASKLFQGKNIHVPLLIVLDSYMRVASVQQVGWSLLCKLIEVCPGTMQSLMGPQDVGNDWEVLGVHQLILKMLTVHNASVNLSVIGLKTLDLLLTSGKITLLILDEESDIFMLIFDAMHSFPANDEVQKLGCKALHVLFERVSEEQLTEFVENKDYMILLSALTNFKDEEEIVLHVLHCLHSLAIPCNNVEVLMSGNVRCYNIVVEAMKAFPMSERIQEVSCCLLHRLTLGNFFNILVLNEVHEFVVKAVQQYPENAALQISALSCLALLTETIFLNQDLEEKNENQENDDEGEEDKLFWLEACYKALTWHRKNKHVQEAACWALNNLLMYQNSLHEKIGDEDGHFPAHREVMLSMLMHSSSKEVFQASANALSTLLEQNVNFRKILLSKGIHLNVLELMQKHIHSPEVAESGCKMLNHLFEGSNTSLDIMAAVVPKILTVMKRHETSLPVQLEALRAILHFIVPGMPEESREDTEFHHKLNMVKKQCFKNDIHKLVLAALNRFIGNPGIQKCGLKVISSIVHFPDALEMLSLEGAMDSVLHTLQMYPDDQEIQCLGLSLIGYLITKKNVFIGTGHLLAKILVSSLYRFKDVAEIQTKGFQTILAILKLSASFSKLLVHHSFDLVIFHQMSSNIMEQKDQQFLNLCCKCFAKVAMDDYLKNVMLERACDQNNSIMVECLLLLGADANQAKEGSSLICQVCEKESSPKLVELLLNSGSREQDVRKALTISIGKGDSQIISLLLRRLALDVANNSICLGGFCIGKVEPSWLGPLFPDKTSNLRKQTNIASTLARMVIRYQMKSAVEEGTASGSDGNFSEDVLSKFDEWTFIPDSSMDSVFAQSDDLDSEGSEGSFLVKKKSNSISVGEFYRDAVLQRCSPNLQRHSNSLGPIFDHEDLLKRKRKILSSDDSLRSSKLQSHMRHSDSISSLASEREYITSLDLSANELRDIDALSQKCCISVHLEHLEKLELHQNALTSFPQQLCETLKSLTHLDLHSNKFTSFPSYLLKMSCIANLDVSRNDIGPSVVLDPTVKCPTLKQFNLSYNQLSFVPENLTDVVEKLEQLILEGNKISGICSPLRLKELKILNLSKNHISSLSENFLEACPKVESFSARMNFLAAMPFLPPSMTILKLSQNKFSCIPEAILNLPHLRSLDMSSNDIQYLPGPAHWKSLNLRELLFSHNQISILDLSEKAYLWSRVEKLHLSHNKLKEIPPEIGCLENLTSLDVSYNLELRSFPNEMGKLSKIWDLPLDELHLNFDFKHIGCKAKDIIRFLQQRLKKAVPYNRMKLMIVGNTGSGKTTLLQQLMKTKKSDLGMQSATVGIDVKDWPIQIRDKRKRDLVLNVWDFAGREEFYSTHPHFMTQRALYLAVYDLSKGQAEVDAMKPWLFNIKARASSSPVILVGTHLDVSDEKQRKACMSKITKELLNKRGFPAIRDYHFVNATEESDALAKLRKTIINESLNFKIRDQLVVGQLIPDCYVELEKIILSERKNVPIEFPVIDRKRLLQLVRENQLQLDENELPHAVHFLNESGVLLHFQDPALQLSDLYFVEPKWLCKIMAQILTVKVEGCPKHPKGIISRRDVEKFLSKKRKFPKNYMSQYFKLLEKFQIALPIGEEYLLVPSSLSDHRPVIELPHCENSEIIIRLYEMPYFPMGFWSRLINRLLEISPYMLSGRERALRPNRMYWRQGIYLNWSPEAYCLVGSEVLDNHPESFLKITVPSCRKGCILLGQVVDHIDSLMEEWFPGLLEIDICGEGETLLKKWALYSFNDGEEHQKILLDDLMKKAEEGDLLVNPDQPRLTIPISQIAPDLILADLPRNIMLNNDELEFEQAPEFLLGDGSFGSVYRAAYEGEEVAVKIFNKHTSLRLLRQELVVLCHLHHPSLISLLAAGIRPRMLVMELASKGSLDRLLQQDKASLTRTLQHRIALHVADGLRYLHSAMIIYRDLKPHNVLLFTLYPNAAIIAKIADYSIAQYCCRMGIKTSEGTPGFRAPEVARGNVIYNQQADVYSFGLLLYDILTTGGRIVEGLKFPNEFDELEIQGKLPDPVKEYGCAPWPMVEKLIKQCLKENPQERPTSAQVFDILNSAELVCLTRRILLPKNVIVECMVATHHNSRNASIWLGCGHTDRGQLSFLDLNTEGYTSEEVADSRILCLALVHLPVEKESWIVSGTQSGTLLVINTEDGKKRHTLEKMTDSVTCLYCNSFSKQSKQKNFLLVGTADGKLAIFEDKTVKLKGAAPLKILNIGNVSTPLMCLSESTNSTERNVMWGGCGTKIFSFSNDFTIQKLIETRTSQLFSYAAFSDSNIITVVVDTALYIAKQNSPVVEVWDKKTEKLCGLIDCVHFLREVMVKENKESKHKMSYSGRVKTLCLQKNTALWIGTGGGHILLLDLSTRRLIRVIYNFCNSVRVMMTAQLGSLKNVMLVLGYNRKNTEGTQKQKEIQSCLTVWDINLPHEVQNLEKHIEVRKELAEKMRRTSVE", "experiment": "SelectScreen kinase assay", "format": "biochemical", "conditions": "KM ATP, read-out: % control"}, "PhK-gamma1_h": {"target": "T5, PhK-gamma1_h (Homo sapiens, UniProt Q16816)", "T5 construct": "purchased Life Technologies (Invitrogen) SelectScreen, Z'-LYTE / Adapta", "T5 sequence (Q16816 whole entry)": "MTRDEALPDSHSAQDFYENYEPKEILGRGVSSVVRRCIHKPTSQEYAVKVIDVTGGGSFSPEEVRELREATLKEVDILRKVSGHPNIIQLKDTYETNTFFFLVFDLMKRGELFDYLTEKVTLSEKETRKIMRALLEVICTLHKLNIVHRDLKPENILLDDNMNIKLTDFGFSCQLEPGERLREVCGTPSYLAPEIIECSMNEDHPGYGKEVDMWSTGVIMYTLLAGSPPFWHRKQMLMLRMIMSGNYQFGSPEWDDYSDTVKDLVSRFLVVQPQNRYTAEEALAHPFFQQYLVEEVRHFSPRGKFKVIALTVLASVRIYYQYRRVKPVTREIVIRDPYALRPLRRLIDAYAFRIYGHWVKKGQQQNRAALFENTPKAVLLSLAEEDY", "experiment": "SelectScreen kinase assay", "format": "biochemical", "conditions": "KM ATP, read-out: % control"}, "CK1-gamma3_h": {"target": "T6, CK1-gamma3_h (Homo sapiens, UniProt Q9Y6M4)", "T6 construct": "purchased Life Technologies (Invitrogen) SelectScreen, Z'-LYTE / Adapta", "T6 sequence (Q9Y6M4 whole entry)": "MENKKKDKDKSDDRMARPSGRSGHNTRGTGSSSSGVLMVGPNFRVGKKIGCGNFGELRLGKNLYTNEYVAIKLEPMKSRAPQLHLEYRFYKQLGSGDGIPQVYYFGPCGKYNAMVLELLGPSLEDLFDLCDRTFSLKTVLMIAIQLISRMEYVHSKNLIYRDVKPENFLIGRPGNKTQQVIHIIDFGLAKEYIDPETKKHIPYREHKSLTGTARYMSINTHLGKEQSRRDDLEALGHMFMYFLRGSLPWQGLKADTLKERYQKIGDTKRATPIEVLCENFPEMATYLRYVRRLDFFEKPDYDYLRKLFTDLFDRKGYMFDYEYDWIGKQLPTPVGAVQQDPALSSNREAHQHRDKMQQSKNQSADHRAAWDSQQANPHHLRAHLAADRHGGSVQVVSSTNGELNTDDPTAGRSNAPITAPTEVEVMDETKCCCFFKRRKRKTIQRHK", "experiment": "SelectScreen kinase assay", "format": "biochemical", "conditions": "KM ATP, read-out: % control"}, "[1]": {"experiment": "preclinical toxicology studies, myelosuppression in male rats", "format": "in vivo, rat"}, "[2]": {"test_system": "rat collagen-induced arthritis model", "conditions": "10 or 30 mg/kg b.i.d.; cited from earlier work"}},
  "data": [
    {"smiles": "c1cc(CC2CCOCC2)n2nc(Nc3ccc4c(NC5CCOCC5)n[nH]c4c3)nc2c1", "note": "[CC-509, [3-(2H-3,4,5,6-tetrahydropyran-4-ylamino)(1H-indazol-6-yl)][5-(2H-3,4,5,6-tetrahydropyran-4-ylmethyl)(2H-1,2,4-triazolo[1,5-a]pyridin-2-yl)]amine]", "values": [
      {"measurement": "% control", "setting": "AMPK_r", "result": 84, "unit": "%"},
      {"measurement": "AUC(0-inf)", "setting": "rat pharmacokinetics; iv, i.v. 2 mg/kg, male rats", "result": "4.02 ± 0.7", "unit": "µM·h"},
      {"measurement": "clearance", "setting": "rat pharmacokinetics; iv, i.v. 2 mg/kg, male rats, read-out: clearance (CL)", "result": "18.9 ± 3.5", "unit": "mL/min/kg"},
      {"measurement": "MRT", "setting": "rat pharmacokinetics; iv, i.v. 2 mg/kg, male rats, read-out: mean residence time (MRT)", "result": "2.3 ± 1.5", "unit": "h"},
      {"measurement": "Vd", "setting": "rat pharmacokinetics; iv, i.v. 2 mg/kg, male rats, read-out: volume of distribution (Vss)", "result": "2.8 ± 2.36", "unit": "L/kg"},
      {"measurement": "AUC(0-inf)", "setting": "rat pharmacokinetics; oral 10 mg/kg, female rats", "result": "12 ± 1", "unit": "µM·h"},
      {"measurement": "Cmax", "setting": "rat pharmacokinetics; oral 10 mg/kg, female rats", "result": "4.4 ± 0.2", "unit": "µM"},
      {"measurement": "Tmax", "setting": "rat pharmacokinetics; oral 10 mg/kg, female rats, read-out: time of maximal plasma concentration (converted)", "result": 0.5, "unit": "h"},
      {"measurement": "remaining activity at 3 µM", "setting": "MSK2_h", "result": 81, "unit": "%"},
      {"measurement": "IC50", "setting": "human KDR in Hek cells; Hek cells", "result": "7.43 ± 3.36", "unit": "µM"},
      {"measurement": "fold difference in potency between R406 and CC-509, KDR cellular assay", "setting": "human KDR in Hek cells; R406 more potent", "result": 10, "unit": "fold"},
      {"measurement": "remaining activity at 3 µM", "setting": "ZIPK_h", "result": 96, "unit": "%"},
      {"measurement": "remaining activity at 3 µM", "setting": "LRRK2 G2019S_h", "result": 4, "unit": "%"},
      {"measurement": "remaining activity at 3 µM", "setting": "PhK-gamma1_h", "result": 75, "unit": "%"},
      {"measurement": "remaining activity at 3 µM", "setting": "CK1-gamma3_h", "result": 50, "unit": "%"},
      {"measurement": "exposure producing myelosuppression", "setting": "[1]", "result": 630, "unit": "µM·h"},
      {"measurement": "fold higher exposure producing myelosuppression than R406", "setting": "[1]", "result": "approximately 5 fold"}
    ]},
    {"smiles": "COc1cc(Nc2ncc(F)c(Nc3ccc4c(n3)NC(=O)C(C)(C)O4)n2)cc(OC)c1OC", "note": "[R406, reference compound]", "values": [
      {"measurement": "clinical paw score in rat CIA", "setting": "[2]", "result": "significantly reduced"}
    ]}
  ]
}
